According to article PMC6637260 (2019):

Key:
[1] = system: F21T (DNA, G4) GGGTTAGGGTTAGGGTTAGGG; test: FRET melting; conditions: 100 mM KCl; 10 mM lithium cacodylate pH 7.2; 1 µM TPE-Im, 200 nM F21T (5:1)
[2] = system: ds43 (DNA, duplex) CGTCACGTAAATCGGTTAACAAATGGCTTTCGAAGCTAGCTTC/GAAGCTAGCTTCGAAAGCCATTTGTTAACCGATTTACGTGACG; test: FRET melting competition; conditions: 100 mM KCl; 10 mM lithium cacodylate pH 7.2; 10 equivalents ds43 lower F21T ΔT1/2 from 19.5 to 7 °C
[3] = system: Tel22 (DNA, G4) AGGGTTAGGGTTAGGGTTAGGG; test: ITC; conditions: 10 mM Tris, 1 mM EDTA, pH 7.4, 20 °C

ΔT1/2 [1]: 19.5 °C
binding [2]: weak
Ka ([3]; 100 mM KCl): 2.4 (±1.0).10^5 M^-1
Ka ([3]; 100 mM NaCl): 3.2 (±1.1).10^5 M^-1
Structure (SMILES): C[n+]1ccn(-c2ccc(C(=C(c3ccc(-n4cc[n+](C)c4)cc3)c3ccc(-n4cc[n+](C)c4)cc3)c3ccc(-n4cc[n+](C)c4)cc3)cc2)c1
